Patent US20130040882A1, “USE OF FIBROBLAST GROWTH FACTOR FRAGMENTS” (NOVARTIS AG, priority 2003, published 2013)

System: uterine gene expression
Assay: Gene expression profiling (HGU133A) in the uterus of ovariectomized monkeys treated with estradiol, tamoxifen or raloxifene
Type: in vivo, cynomolgus monkeys (Macaca fascicularis)
Details: uterus, OVX monkeys

CC/C(=C(\c1ccccc1)c1ccc(OCCN(C)C)cc1)c1ccccc1 [tamoxifen]
Fold change relative to SHAM control: Growth associated protein 43: 0.8 fold
Fold change relative to SHAM control: H2A histone family, member Y: 1.4 fold
Fold change relative to SHAM control: Heparan sulfate proteoglycan 2 (perlecan): 1.0 fold
Fold change relative to SHAM control: Histone H2A.F/Z variant: 1.4 fold
Fold change relative to SHAM control: Insulin-like growth factor binding protein 2, 36 kda: 1.7 fold
Fold change relative to SHAM control: Insulin-like growth factor binding protein 5: 1.0 fold
Fold change relative to SHAM control: Integrin, beta 5: 0.9 fold
Fold change relative to SHAM control: Intercrine-alpha, mrna sequence: 0.9 fold
Fold change relative to SHAM control: LDL receptor adaptor protein: 1.6 fold
Fold change relative to SHAM control: LIM and senescent cell antigen-like domains 1: 1.1 fold
Fold change relative to SHAM control: Laminin, beta 1: 1.0 fold
Fold change relative to SHAM control: Latent transforming growth factor beta binding protein 1: 1.2 fold
Fold change relative to SHAM control: Matrix metalloproteinase 19: 0.3 fold
Fold change relative to SHAM control: Mitogen-activated protein kinase kinase kinase kinase 4: 1.0 fold
Fold change relative to SHAM control: Nidogen (enactin): 1.4 fold
Fold change relative to SHAM control: Osteoglycin (osteoinductive factor, mimecan): 0.8 fold
Fold change relative to SHAM control: Peroxiredoxin 1: 1.4 fold
Fold change relative to SHAM control: Phosphatase and tensin homolog (mutated in multiple advanced cancers 1): 1.0 fold
Fold change relative to SHAM control: Phospholipid transfer protein: 0.9 fold
Fold change relative to SHAM control: Pituitary tumour-transforming 1 interacting protein: 0.9 fold
Fold change relative to SHAM control: Procollagen C-endopeptidase enhancer: 1.1 fold
Fold change relative to SHAM control: Procollagen-proline, 2-oxoglutarate 4-dioxygenase (proline 4-hydroxylase), alpha polypeptide II: 1.0 fold
Fold change relative to SHAM control: Progesterone receptor: 1.5 fold
Fold change relative to SHAM control: Protein tyrosine kinase 9: 1.1 fold
Fold change relative to SHAM control: SET domain, bifurcated 1: 1.4 fold
Fold change relative to SHAM control: SPARC-like 1 (mast9, hevin): 0.8 fold
Fold change relative to SHAM control: Secreted frizzled-related protein 1: 1.1 fold
Fold change relative to SHAM control: Secreted frizzled-related protein 4: 1.4 fold
Fold change relative to SHAM control: Secreted protein, acidic, cysteine-rich (osteonectin): 1.0 fold
Fold change relative to SHAM control: Serine (or cysteine) proteinase inhibitor, clade H (heat shock protein 47), member 1, (collagen binding protein 1): 1.1 fold
Fold change relative to SHAM control: Solute carrier family 22 (organic cation transporter), member 1-like: 1.5 fold
Fold change relative to SHAM control: Solute carrier family 25 (mitochondrial carrier; adenine nucleotide translocator), member 5: 1.5 fold
Fold change relative to SHAM control: Stem cell growth factor; lymphocyte secreted C-type lectin: 0.9 fold
Fold change relative to SHAM control: Tenascin C (hexabrachion): 2.9 fold
Fold change relative to SHAM control: Testis Enhanced Gene Transcript (Bax Inhibitor 1): 1.5 fold
Fold change relative to SHAM control: Thioredoxin interacting protein: 0.9 fold
Fold change relative to SHAM control: Transforming growth factor, beta-induced, 68 kda: 1.0 fold
Fold change relative to SHAM control: Ubiquinol-cytochrome c reductase, Rieske iron-sulfur polypeptide 1: 1.1 fold
Fold change relative to SHAM control: Wingless-type MMTV integration site family, member 2B: 1.1 fold
Fold change relative to SHAM control: Wingless-type MMTV integration site family, member 16: 1.0 fold
Fold change relative to OVX: Insulin receptor (Table 46): 0.7 fold
Fold change relative to SHAM control: Insulin receptor (Table 46): 1.2 fold
Fold change relative to OVX: Insulin receptor (Table 51): 0.7 fold
Fold change relative to SHAM control: Insulin receptor (Table 51): 1.2 fold
Fold change relative to OVX: Fibronectin 1 (entry with OVX average 39): 2.3 fold
Fold change relative to OVX: Bone morphogenetic protein 1 (entry with OVX average 79): 1.9 fold
Fold change relative to OVX: Bone morphogenetic protein 1 (entry with OVX average 93): 2.2 fold
Fold change relative to OVX: Insulin-like growth factor 1 (somatomedin C) (entry with OVX average 102): 3.7 fold
Fold change relative to OVX: Fibrillin 1 (Marfan syndrome) (entry with OVX average 124): 1.9 fold
Fold change relative to OVX: Collagen, type I, alpha 2 (entry with OVX average 154): 6.1 fold
Fold change relative to OVX: Insulin-like growth factor 1 (somatomedin C) (entry with OVX average 156): 4.6 fold
Fold change relative to OVX: Solute carrier family 2 (facilitated glucose/fructose transporter), member 5 (entry with OVX average 171): 2.2 fold
Fold change relative to OVX: Solute carrier family 2 (facilitated glucose/fructose transporter), member 5 (entry with OVX average 176): 2.1 fold
Fold change relative to OVX: Collagen, type IV, alpha 1 (entry with OVX average 182): 3.2 fold
Fold change relative to OVX: Cyclin-dependent kinase inhibitor 1C (p57, Kip2) (entry with OVX average 224): 0.7 fold
Fold change relative to OVX: Insulin-like growth factor 1 (somatomedin C) (entry with OVX average 310): 4.8 fold
Fold change relative to OVX: Fibronectin 1 (entry with OVX average 419): 2.0 fold
Fold change relative to OVX: Cyclin-dependent kinase inhibitor 1C (p57, Kip2) (entry with OVX average 527): 0.5 fold
Fold change relative to OVX: Fibronectin 1 (entry with OVX average 586): 1.9 fold
Fold change relative to OVX: Fibronectin 1 (entry with OVX average 648): 1.9 fold
Fold change relative to OVX: Collagen, type IV, alpha 1 (entry with OVX average 690): 2.7 fold
Fold change relative to OVX: Fibronectin 1 (entry with OVX average 757): 1.6 fold
Fold change relative to OVX: Cyclin-dependent kinase inhibitor 1C (p57, Kip2) (entry with OVX average 762): 0.5 fold
Fold change relative to OVX: ATP synthase, H+ transporting, mitochondrial F0 complex, subunit c (subunit 9) isoform 3 (entry with OVX average 811): 2.0 fold
Fold change relative to OVX: Fibrillin 1 (Marfan syndrome) (entry with OVX average 874): 2.1 fold
Fold change relative to OVX: ATP synthase, H+ transporting, mitochondrial F0 complex, subunit c (subunit 9) isoform 3 (entry with OVX average 1007): 1.9 fold
Fold change relative to OVX: Collagen, type III, alpha 1 (Ehlers-Danlos syndrome type IV, autosomal dominant) (entry with OVX average 1084): 3.4 fold
Fold change relative to OVX: Collagen, type I, alpha 2 (entry with OVX average 2757): 3.7 fold
Fold change relative to OVX: Collagen, type III, alpha 1 (Ehlers-Danlos syndrome type IV, autosomal dominant) (entry with OVX average 3445): 2.9 fold
Fold change relative to OVX: H3 histone, family 3A (entry with OVX average 9495): 1.4 fold
Fold change relative to OVX: H3 histone, family 3A (entry with OVX average 9692): 1.4 fold
Fold change relative to SHAM control: Fibronectin 1 (entry with SHAM average 100): 0.9 fold
Fold change relative to SHAM control: Bone morphogenetic protein 1 (entry with SHAM average 143): 1.0 fold
Fold change relative to SHAM control: Cyclin-dependent kinase inhibitor 1C (p57, Kip2) (entry with SHAM average 201): 0.8 fold
Fold change relative to SHAM control: Bone morphogenetic protein 1 (entry with SHAM average 205): 1.0 fold
Fold change relative to SHAM control: Insulin-like growth factor 1 (somatomedin C) (entry with SHAM average 226): 1.7 fold
Fold change relative to SHAM control: Fibrillin 1 (Marfan syndrome) (entry with SHAM average 236): 1.0 fold
Fold change relative to SHAM control: Solute carrier family 2 (facilitated glucose/fructose transporter), member 5 (entry with SHAM average 291): 1.3 fold
Fold change relative to SHAM control: Solute carrier family 2 (facilitated glucose/fructose transporter), member 5 (entry with SHAM average 317): 1.2 fold
Fold change relative to SHAM control: Insulin-like growth factor 1 (somatomedin C) (entry with SHAM average 417): 1.7 fold
Fold change relative to SHAM control: Collagen, type IV, alpha 1 (entry with SHAM average 436): 1.3 fold
Fold change relative to SHAM control: Cyclin-dependent kinase inhibitor 1C (p57, Kip2) (entry with SHAM average 459): 0.6 fold
Fold change relative to SHAM control: Collagen, type I, alpha 2 (entry with SHAM average 493): 1.9 fold
Fold change relative to SHAM control: Insulin-like growth factor 1 (somatomedin C) (entry with SHAM average 581): 2.6 fold
Fold change relative to SHAM control: Cyclin-dependent kinase inhibitor 1C (p57, Kip2) (entry with SHAM average 660): 0.6 fold
Fold change relative to SHAM control: Fibronectin 1 (entry with SHAM average 920): 0.9 fold
Fold change relative to SHAM control: ATP synthase, H+ transporting, mitochondrial F0 complex, subunit c (subunit 9) isoform 3 (entry with SHAM average 1045): 1.6 fold
Fold change relative to SHAM control: Fibronectin 1 (entry with SHAM average 1089): 1.0 fold
Fold change relative to SHAM control: Collagen, type IV, alpha 1 (entry with SHAM average 1143): 1.6 fold
Fold change relative to SHAM control: Fibronectin 1 (entry with SHAM average 1288): 0.9 fold
Fold change relative to SHAM control: Fibronectin 1 (entry with SHAM average 1301): 0.9 fold
Fold change relative to SHAM control: ATP synthase, H+ transporting, mitochondrial F0 complex, subunit c (subunit 9) isoform 3 (entry with SHAM average 1355): 1.4 fold
Fold change relative to SHAM control: Fibrillin 1 (Marfan syndrome) (entry with SHAM average 1388): 1.3 fold
Fold change relative to SHAM control: Collagen, type III, alpha 1 (Ehlers-Danlos syndrome type IV, autosomal dominant) (entry with SHAM average 2992): 1.2 fold
Fold change relative to SHAM control: Collagen, type III, alpha 1 (Ehlers-Danlos syndrome type IV, autosomal dominant) (entry with SHAM average 7354): 1.4 fold
Fold change relative to SHAM control: Collagen, type I, alpha 2 (entry with SHAM average 7758): 1.3 fold
Fold change relative to SHAM control: H3 histone, family 3A (entry with SHAM average 9408): 1.4 fold
Fold change relative to SHAM control: H3 histone, family 3A (entry with SHAM average 10239): 1.3 fold
